Measured values as given in patent US9555016B2, “Lytic agents for use in treating intravascular clots” (priority 2013, dated 2017).
Where a name gives a salt, the structure may show the parent alone.

Columns and labels:
[1] = tested on: acute clots, formed from ovine blood; assay: Mechanical compression testing (Texture Analyzer) of acute clots; conditions: acute blood clot, after 1 hour of treatment
Protocol: (§1) Acute clots, formed from ovine blood, were formed and treated with guanidine hydrochloride. Clots were formed following the general procedures set forth in Luo et al., “Creation Of Fibrinogen-Enhanced Experimental Blood Clots To Evaluate Mechanical Thrombectomy Devices For Treatment Of Acute Stroke: An In Vitro Study,” J. Vase. Interv. Radiol. 2012 August; 23(8): 1077-83. Briefly, ovine blood was contacted with about […] thrombin and about 25 mM calcium chloride. Additional acute clots were formed where about 40 mg/ml fibrinongen was first added to the ovine blood.
Guanidine chloride at concentrations of 6 M and 12 M in 0.9% sodium chloride were added to the clots, with untreated clots and clots treated with 0.2 mg/ml tPA used as controls.
The clots were subjected to mechanical testing to determine the effects of the guanidine chloride on the hardness of the clot, as well as its elasticity and lytic resistance. Briefly, a Texture Analyzer manufactured by Texture Technologies Corporation, running Exponent Software from Texture Technologies Corporation was used. […] Clot samples having a thickness of about 1 mm were prepared and placed underneath the probe, until the probe was about 3 mm above the sample surface. The Texture Analyzer subjected the sample to a 0.5 mm compression test, and then a 1 mm compression test. […]

[2] = tested on: acute clots, formed from ovine blood; assay: Gravimetric testing of lytic resistance of acute clots
Protocol: as §1
Gravimetric testing to determine lytic resistance of the clots was carried out as follows. Briefly, an incubation shaker was heated to about 37° C. Clots were allowed to rest at a temperature of about 4° C. for 24 hours prior to testing. About 200-300 mg of clot samples were weighed out, with 1 sample placed per well in a 24 well plate. Weights were recorded.
Guanidine hydrochloride solutions were prepared as follows:
1. 12 M Guanidine hydrochloride (GH): 22.93 g GH+20 ml 0.9% sodium chloride
2. 6 M GH: 10 ml 12 M GH+10 ml 0.9% sodium chloride
3. 3 M GH: 10 ml 6 M GH+10 ml 0.9% sodium chloride
4. 1 M GH: 10 ml 3 M GH+20 ml 0.9% sodium chloride
6. 0.5 M GH: 10 ml 1 M GH+10 ml 0.9% sodium chloride
About 1 ml of each solution was placed in each well. […] The weight was recorded at each time point. […]

[3] = tested on: chronic clots, formed of collagen; assay: Mechanical compression testing (Texture Analyzer) of chronic collagen clots
Protocol: The clots were subjected to mechanical testing to determine the effects of the guanidine chloride on the hardness of the clot, as well as its elasticity and lytic resistance. Briefly, a Texture Analyzer manufactured by Texture Technologies Corporation, running Exponent Software from Texture Technologies Corporation was used. […] Clot samples having a thickness of about 1 mm were prepared and placed underneath the probe, until the probe was about 3 mm above the sample surface. The Texture Analyzer subjected the sample to a 0.5 mm compression test, and then a 1 mm compression test. Chronic clots, formed of collagen, were formed and treated with guanidine hydrochloride. Chronic collagen clots were formed by reverse dialysis, as generally disclosed in Knight, et al., “In vitro formation by reverse dialysis of collagen gels containing highly oriented arrays of fibrils,” J. Biomed. Mater. Res., 41, 185-191 (1998). Briefly, about 1.5 grams collagen was combined with about 45 ml distilled water and 5 ml of 0.5 M acetic acid. A dialysis solution was prepared with 2% polyethylene glycol (PEG) in about 10 mM of a Tris base buffer (2000 ml distilled water added to 40 grams PEG and 2.422 grams Tris Base (also known as Trimethylol Aminomethane, Tris(hydroxymethyl)aminomethane)). […] Fibril formation was allowed to proceed over a period of about 48 hours, at which time the collagen was collected and stored in about 10 mM Tris-base solution at a pH of about 7.4 and stored at about 4° C. Additional chronic clots were prepared by combining collagen gels produced as above, and then adding genipin thereto (about 5 mM genipin solution in about 0.9% sodium chloride). Chronic clots thus formed were subjected to the hardness and gravimetric tests described above in Example 1.

[4] = tested on: chronic clots, formed of collagen; assay: Gravimetric testing of lytic resistance of chronic collagen clots
Protocol: Gravimetric testing to determine lytic resistance of the clots was carried out as follows. Briefly, an incubation shaker was heated to about 37° C. Clots were allowed to rest at a temperature of about 4° C. for 24 hours prior to testing. About 200-300 mg of clot samples were weighed out, with 1 sample placed per well in a 24 well plate. Weights were recorded. About 1 ml of each solution was placed in each well. The plate was then placed into the incubation shaker and shaken at 160 rpm for 1 hour and 3 hours. The weight was recorded at each time point. Lytic resistance was defined as follows, as the percent clot remaining: [formula] Chronic clots, formed of collagen, were formed and treated with guanidine hydrochloride. Chronic collagen clots were formed by reverse dialysis, as generally disclosed in Knight, et al., “In vitro formation by reverse dialysis of collagen gels containing highly oriented arrays of fibrils,” J. Biomed. Mater. Res., 41, 185-191 (1998). Briefly, about 1.5 grams collagen was combined with about 45 ml distilled water and 5 ml of 0.5 M acetic acid. A dialysis solution was prepared with 2% polyethylene glycol (PEG) in about 10 mM of a Tris base buffer (2000 ml distilled water added to 40 grams PEG and 2.422 grams Tris Base (also known as Trimethylol Aminomethane, Tris(hydroxymethyl)aminomethane)). […]

[5] = chronic clots prepared without genipin

## N=C(N)N [guanidine hydrochloride]
[1]
  effect on hardness (summary, FIG. 2): significant effect on the hardness
[2]; acute blood-based clot models, increased concentrations
  clot weight (summary of gravimetric testing): did not show a decrease in weight
[2]; acute clots, increasing molar concentration of guanidine hydrochloride
  lytic resistance versus molar concentration: lytic resistance decreased upon increase in the molar concentration
[3]; [5]
  elasticity after treatment: dissolved/broken down to a point where elasticity could not be measured
  hardness after treatment: dissolved/broken down to a point where hardness could not be measured
[3]; chronic collagen clots
  effect on hardness (summary, FIG. 3): significant decrease in hardness
[4]; chronic clots, increasing molar concentration of guanidine hydrochloride
  lytic resistance versus molar concentration: lytic resistance decreased upon increase in the molar concentration
[4]; chronic collagen-based clots, after 1 hour, even at low concentrations
  dissolution of clot (summary): dissolve most of the collagen clot models
